Molecules are shown by their SMILES.

The series can be described thus: Xenon light resistance test, ink of Example 18 (Table 58). It is filed as physicochemical. To be noted: for each glossy paper (Table 58). How it is done:
An ink of Example 18 was prepared as in Example 1 except that the compound represented by the above formula (200) was used instead of the compound represented by the above formula (101).
Ink-jet recording was performed with an ink-jet printer (Canon, Inc., Product name: PIXUS ip7230) to allow each of the inks from Example 18 and Comparative Examples 1, 2 above to be attached on the following glossy papers 1 to 4. Upon performing recording, image patterns were created so that the density can be obtained in a gradation of 6 levels: 100%, 85%, 70%, 55%, 40%, and 25% to obtain a half-tone recorded article. The resulting recorded article was used as a test piece to perform the following tests.
Glossy paper 1: Canon, Inc., Product name: Canon Photograph paper, platinum grade (PT-201)
Glossy paper 2: Seiko Epson Corporation, Product name: Photograph paper Crispia
Glossy paper 3: Brother Industries, Ltd., Product name: BP71G
Glossy paper 4: FUJIFILM Corporation, Product name: Gasai Photo-finishing Pro
When required, color measurements of a recorded image were performed using a colorimeter (Product name SpectroEye from X-rite, Inc.). Color measurements were performed under the conditions of a density standard of DIN NB, a wide viewing angle of 2 degrees, a light source of D65. […]

Consider `O=S(=O)(O)CCCOc1cc(N=Nc2ccc(Cl)c(S(=O)(=O)O)c2)c(Cl)cc1Nc1nc(Nc2cc(Cl)c(N=Nc3ccc(Cl)c(S(=O)(=O)O)c3)cc2OCCCS(=O)(=O)O)nc(N2CCN(c3nc(Nc4cc(Cl)c(N=Nc5ccc(Cl)c(S(=O)(=O)O)c5)cc4OCCCS(=O)(=O)O)nc(Nc4cc(Cl)c(N=Nc5ccc(Cl)c(S(=O)(=O)O)c5)cc4OCCCS(=O)(=O)O)n3)CC2)n1` [Example 18], for which the “light resistance tests, results compared with Comparative Examples 1, 2” value is recorded as “better results”.

These data come from patent US11512203B2, “Water-soluble azo compound or salt thereof, ink and recording medium” (Nippon Kayaku Kabushiki Kaisha, priority 2016, dated 2022).
